Measurements taken from patent publication US11292801B2, “Calpain modulators and therapeutic uses thereof” (Blade Therapeutics, Inc., priority 2016, dated 2022).

Tests used:
Human Calpain 9/NS1 = target: T1, Human Calpain 9/NS1 (Homo sapiens, UniProt O14815); assay: Biochemical inhibition of calpain 9, continuous fluorescence (FRET substrate) assay; conditions: mean, read-out: Human Calpain 9/NS1 IC50 (nM)_MEAN
T1 sequence (O14815 1-690): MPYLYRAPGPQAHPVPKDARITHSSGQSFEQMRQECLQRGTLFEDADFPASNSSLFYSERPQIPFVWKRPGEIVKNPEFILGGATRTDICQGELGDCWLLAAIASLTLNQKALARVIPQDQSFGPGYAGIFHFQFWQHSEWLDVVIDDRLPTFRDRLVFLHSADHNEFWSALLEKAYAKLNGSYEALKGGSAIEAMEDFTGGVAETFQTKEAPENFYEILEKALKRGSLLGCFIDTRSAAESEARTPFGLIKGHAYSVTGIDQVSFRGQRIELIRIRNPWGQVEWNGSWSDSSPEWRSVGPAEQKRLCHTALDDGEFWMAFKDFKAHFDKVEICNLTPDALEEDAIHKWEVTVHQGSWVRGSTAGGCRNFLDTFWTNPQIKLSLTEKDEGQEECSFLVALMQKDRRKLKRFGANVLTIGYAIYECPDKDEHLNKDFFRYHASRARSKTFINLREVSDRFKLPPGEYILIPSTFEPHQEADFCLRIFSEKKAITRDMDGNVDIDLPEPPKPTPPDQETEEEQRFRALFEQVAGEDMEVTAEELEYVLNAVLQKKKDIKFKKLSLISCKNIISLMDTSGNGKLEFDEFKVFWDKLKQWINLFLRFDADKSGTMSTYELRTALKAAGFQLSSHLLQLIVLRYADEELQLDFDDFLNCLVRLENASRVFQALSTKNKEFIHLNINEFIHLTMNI
T1 sequence (P04632 1-268 partner): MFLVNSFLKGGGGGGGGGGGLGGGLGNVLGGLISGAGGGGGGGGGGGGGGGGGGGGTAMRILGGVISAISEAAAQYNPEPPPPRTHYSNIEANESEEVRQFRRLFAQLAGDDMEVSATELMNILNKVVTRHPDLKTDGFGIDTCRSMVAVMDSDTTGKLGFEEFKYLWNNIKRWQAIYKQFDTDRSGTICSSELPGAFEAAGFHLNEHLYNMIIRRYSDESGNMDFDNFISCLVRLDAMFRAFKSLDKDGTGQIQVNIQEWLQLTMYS
Method in brief: (§1)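 IC50 values come from 4-parameter fits of progress-curve rates (1-5 min slopes) against log inhibitor concentration. Calpain and inhibitor premixed at ambient 25C in Tris pH ~7.5/NaCl/DTT buffer, then CaCl2 and FRET substrate added to activate; 5-FAM fluorescence (ex 490/em 520) followed 10 min.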

Human Calpain 2/NS1 = target: T2, Human Calpain 2/NS1 (Homo sapiens, UniProt P17655); assay: Biochemical inhibition of calpain 2, continuous fluorescence (FRET substrate) assay; conditions: mean, read-out: Human Calpain 2/NS1 IC50 (nM)_MEAN
T2 sequence (P17655 1-700): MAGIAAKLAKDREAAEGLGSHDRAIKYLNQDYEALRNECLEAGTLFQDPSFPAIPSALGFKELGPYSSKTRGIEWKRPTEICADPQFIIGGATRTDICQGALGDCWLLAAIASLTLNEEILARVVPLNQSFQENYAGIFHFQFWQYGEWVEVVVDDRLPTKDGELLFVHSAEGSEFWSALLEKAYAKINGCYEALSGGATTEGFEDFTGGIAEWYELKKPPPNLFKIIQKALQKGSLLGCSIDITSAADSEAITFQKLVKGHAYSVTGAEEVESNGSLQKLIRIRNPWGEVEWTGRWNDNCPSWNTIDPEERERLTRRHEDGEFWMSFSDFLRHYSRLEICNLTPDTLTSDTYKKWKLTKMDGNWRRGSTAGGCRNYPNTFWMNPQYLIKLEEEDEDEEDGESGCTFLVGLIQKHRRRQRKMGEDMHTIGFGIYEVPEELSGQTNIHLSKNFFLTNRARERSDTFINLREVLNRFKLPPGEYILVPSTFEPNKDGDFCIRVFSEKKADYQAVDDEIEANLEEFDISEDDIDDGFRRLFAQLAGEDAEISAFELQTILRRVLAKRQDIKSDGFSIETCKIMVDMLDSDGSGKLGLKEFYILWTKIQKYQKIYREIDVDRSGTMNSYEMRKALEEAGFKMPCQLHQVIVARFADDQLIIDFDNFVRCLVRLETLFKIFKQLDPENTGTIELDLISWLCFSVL
T2 sequence (P04632 1-268 partner): T1 sequence (P04632 1-268 partner)
Method in brief: as §1

Human Calpain 1/NS1 = target: T3, Human Calpain 1/NS1 (Homo sapiens, UniProt P07384); assay: Biochemical inhibition of calpain 1, continuous fluorescence (FRET substrate) assay; conditions: mean, read-out: Human Calpain 1/NS1 IC50 (nM)_MEAN
T3 sequence (P07384 1-714): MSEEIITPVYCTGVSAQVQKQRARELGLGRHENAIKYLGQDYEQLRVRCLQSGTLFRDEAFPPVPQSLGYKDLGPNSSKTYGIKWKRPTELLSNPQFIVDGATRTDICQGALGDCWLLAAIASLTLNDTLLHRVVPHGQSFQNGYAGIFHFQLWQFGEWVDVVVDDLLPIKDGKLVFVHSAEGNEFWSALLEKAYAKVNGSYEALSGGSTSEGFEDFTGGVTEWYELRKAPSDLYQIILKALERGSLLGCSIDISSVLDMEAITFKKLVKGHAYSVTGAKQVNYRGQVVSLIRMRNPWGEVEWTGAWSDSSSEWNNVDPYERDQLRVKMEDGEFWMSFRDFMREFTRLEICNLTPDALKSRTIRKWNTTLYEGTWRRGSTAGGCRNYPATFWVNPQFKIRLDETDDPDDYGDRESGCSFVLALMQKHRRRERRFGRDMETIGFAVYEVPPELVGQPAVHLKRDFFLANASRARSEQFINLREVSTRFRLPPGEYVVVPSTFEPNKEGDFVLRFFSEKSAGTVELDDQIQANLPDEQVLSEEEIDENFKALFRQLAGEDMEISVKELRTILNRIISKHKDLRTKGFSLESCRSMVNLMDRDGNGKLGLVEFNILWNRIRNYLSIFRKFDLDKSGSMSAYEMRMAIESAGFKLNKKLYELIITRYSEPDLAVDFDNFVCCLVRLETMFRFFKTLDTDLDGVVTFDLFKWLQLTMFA
T3 sequence (P04632 1-268 partner): T1 sequence (P04632 1-268 partner)
Method in brief: as §1

Row | Structure (SMILES) | IC50 (Human Calpain 9/NS1) [nM] | IC50 (Human Calpain 2/NS1) [nM] | IC50 (Human Calpain 1/NS1) [nM]
1 | CN(C)CCNC(=O)C(=O)C1CCCCOCCOCc2ccccc2C(=O)N1 (stereo not drawn) [Compound 110, N-(2-(dimethylamino)ethyl)-2-oxo-2-(12-oxo-1,3,4,6,7,8,9,10,11,12-decahydrobenzo[f][1,4]dioxa[9]azacyclotetradecin-10-yl)acetamide] | 3000 to 10000 | > 10000 | > 10000
2 | O=C[C@@H]1Cc2ccc(cc2)OCC=CCOc2ccc3nn(cc3c2)-c2ncccc2C(=O)N1 [Compound 71, (1^3Z,1^4E,5S)-3-oxo-1^2H-8,13-dioxa-4-aza-1(2,5)-indazola-2(2,3)-pyridina-7(1,4)-benzenacyclotridecaphan-10-ene-5-carbaldehyde] | < 3000 | < 3000 | < 3000
3 | O=C(NC1CC1)C(=O)[C@@H]1C/C=C/COCCOCc2ccccc2C(=O)N1 [Compound 79, (S,E)-N-cyclopropyl-2-oxo-2-(12-oxo-1,3,4,6,9,10,11,12-octahydrobenzo[f][1,4]dioxa[9]azacyclotetradecin-10-yl)acetamide] | 3000 to 10000 | > 10000 | > 10000
4 | O=C1NC(C(=O)C(=O)N2CCOCC2)CCCCOCCOCc2ccccc21 (stereo not drawn) [Compound 115, 1-Morpholino-2-(12-oxo-1,3,4,6,7,8,9,10,11,12-decahydrobenzo[f][1,4]dioxa[9]azacyclotetradecin-10-yl)ethane-1,2-dione] | > 10000 | > 10000 | > 10000
5 | O=C[C@@H]1CC=CCCCCCc2ncccc2C(=O)N1 [Compound 50, (S)-5-Oxo-6,7,8,11,12,13,14,15-octahydro-5h-pyrido[3,2-c][1]aza-cyclotridecine-7-carbaldehyde] | < 3000 | 3000 to 10000 | > 10000
6 | COc1cccc(CCNC(=O)C(=O)C2CCCCOCCOCc3ccccc3C(=O)N2)c1 (stereo not drawn) [Compound 88, N-(3-methoxyphenethyl)-2-oxo-2-(12-oxo-1,3,4,6,7,8,9,10,11,12-decahydrobenzo[f][1,4]dioxa[9]azacyclotetradecin-10-yl)acetamide] | < 3000 | > 10000 | > 10000
7 | NC(=O)C(=O)[C@@H]1CCCCCOc2cccc(c2)-c2n[nH]cc2C(=O)N1 [Compound 140, (S)-2-oxo-2-(11-oxo-1H-3-oxa-10-aza-1(3,4)-pyrazola-2(1,3)-benzena-cycloundecaphane-9-yl)acetamide] | < 3000 | < 3000 | < 3000
8 | O=C[C@@H]1CCCCCOc2ccc(F)c(c2)-c2ccccc2C(=O)N1 [Compound 146, (S)-2^6-fluoro-11-oxo-3-oxa-10-aza-1(1,2),2(1,3)-dibenzenacycloundecaphane-9-carbaldehyde] | < 3000 | < 3000 | < 3000
9 | Cc1cccc(Cl)c1CNC(=O)C(=O)C1CCCCOCCOCc2ccccc2C(=O)N1 (stereo not drawn) [Compound 86, N-(2-chloro-6-methylbenzyl)-2-oxo-2-(12-oxo-1,3,4,6,7,8,9,10,11,12-decahydrobenzo[f][1,4]dioxa[9]azacyclotetradecin-10-yl)acetamide] | > 10000 | > 10000 | > 10000
10 | O=C(NCCc1ccccc1)C(=O)C1CCCCOCCOCc2ccccc2C(=O)N1 (stereo not drawn) [Compound 104, 2-Oxo-2-(12-oxo-1,3,4,6,7,8,9,10,11,12-decahydrobenzo[f][1,4]dioxa[9]aza-cyclotetradecin-10-yl)-N-phenethylacetamide] | < 3000 | 3000 to 10000 | > 10000
11 | CCCCNC(=O)C(=O)[C@@H]1C/C=C/COCCOCc2ccccc2C(=O)N1 [Compound 64, (S,E)-N-butyl-2-oxo-2-(12-oxo-1,3,4,6,9,10,11,12-octahydrobenzo[f][1,4]dioxa[9]azacyclotetradecin-10-yl)acetamide] | < 3000 | > 10000 | > 10000
12 | O=C[C@@H]1Cc2cccc(c2)CCCCOc2cccc(c2)-c2ncccc2C(=O)N1 [Compound 35, (S)-3-Oxo-12-oxa-4-aza-2(2,3)-pyridina-1,7(1,3)-dibenzenacyclododecaphane-5-carbaldehyde] | < 3000 | < 3000 | < 3000
